Data published in US10611740B2, “Aryl dihydro-2H-benzo[b][1,4]oxazine sulfonamide and related compounds for use as agonists of RORγ and the treatment of disease” (Lycera Corporation, priority 2015, dated 2020).
pEC50: −log10 of the molar value.

How the values were obtained:
RORγ-LBD = molecular target: T1, RORγ-LBD (Homo sapiens, UniProt P51449); experiment: RORγ-Ligand Binding Domain (LBD) TR-FRET Assay; format: biochemical;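 on TR-FRET Assay Max Response: 665/615 nm ratio relative to signal without ursolic acid or compound set at 100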
T1 construct: made in house; host or cells: SF9 cells (baculovirus)
T1 sequence (P51449 269-508 limits assumed): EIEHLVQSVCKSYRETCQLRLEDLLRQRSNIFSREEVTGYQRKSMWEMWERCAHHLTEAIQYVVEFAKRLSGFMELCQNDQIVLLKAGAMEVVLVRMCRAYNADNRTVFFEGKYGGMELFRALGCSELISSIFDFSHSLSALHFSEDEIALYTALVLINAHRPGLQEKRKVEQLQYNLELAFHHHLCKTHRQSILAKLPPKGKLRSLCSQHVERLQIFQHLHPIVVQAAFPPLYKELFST
Procedure, shortened: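 His-tagged RORγ-LBD from SF9 baculovirus lysate, ~3 nM final, in 50 mM Tris pH 7.0, 50 mM KCl, 1 mM EDTA, 0.1 mM DTT, 0.01% BSA. Biotinylated SRC1 LXXLL peptide at 200 nM final with 2 μM ursolic acid; TR-FRET read-out, 1% DMSO final.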

Gal4-RORγ-LBD = molecular target: T2, Gal4-RORγ-LBD (Homo sapiens, UniProt P51449); experiment: Gal4-RORγ Luciferase Reporter Assay in HEK-293T Cells; format: cell-based; settings: HEK-293 cells
T2 construct: expressed in transfected cells; host or cells: HEK-293 cells (pcDNA3.1neo plasmid)
T2 sequence (P51449 269-508 limits assumed): T1 sequence (P51449 269-508 limits assumed)
Procedure, shortened: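 HEK-293 cells were transiently co-transfected with Gal4-RORγ-LBD and pGL4.31 Gal4-luciferase, with ursolic acid added at 2 μM final. Compounds were incubated overnight at 37° C. in 0.2% DMSO and luminescence read with One-Glo. Max Response is the upper plateau of a 4-parameter logistic fit, with signal lacking ursolic acid or compound set to 100.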

[1] = luciferase reporter, with 2 μM ursolic acid

| Structure (SMILES) | pEC50 (RORγ-LBD) | pEC50 (Gal4-RORγ-LBD; [1]) | pEC50 (Gal4-RORγ-LBD; 2 μM ursolic acid) | TR-FRET Assay Max Response (RORγ-LBD) | Gal4-RORγ Assay Max Response (Gal4-RORγ-LBD; [1]) | Gal4-RORγ Assay Max Response (Gal4-RORγ-LBD; 2 μM ursolic acid) |
| --- | --- | --- | --- | --- | --- | --- |
| COc1cccc(-c2ccc3c(c2)N(S(=O)(=O)c2cccc(C(F)(F)F)c2)C[C@H](CCC(=O)N2CCC(C(=O)O)CC2)O3)c1 [Compound 23L, (S)-1-(3-(6-(3-methoxyphenyl)-4-((3-(trifluoromethyl)-phenyl)sulfonyl)-3,4-dihydro-2H-benzo[b][1,4]oxazin-2-yl)propanoyl)piperidine-4-carboxylic acid] | > 6.30 | > 6.30 |  | **** (The symbol “****” indicates a value greater than 200) | ** (The symbol “**” indicates a value in the range of greater than 90 to 150) |  |
| Cc1ccc(F)c(-c2ccc3c(c2)N(S(=O)(=O)c2cccc(C(F)(F)F)c2)C[C@H](CCC(=O)O)O3)c1 [Compound 2BL, (S)-3-(6-(2-fluoro-5-methyl-phenyl)-4-((3-(trifluoromethyl)-phenyl)sulfonyl)-3,4-dihydro-2H-benzo[b][1,4]oxazin-2-yl)propanoic acid] | > 6.30 | > 6.30 |  | *** (The symbol “***” indicates a value in the range of greater than 150 to 200) | ** (The symbol “**” indicates a value in the range of greater than 90 to 150) |  |
| COc1cc(Cl)cc(-c2ccc3c(c2)N(S(=O)(=O)c2cccc(C(F)(F)F)c2)C[C@H](CCC(=O)O)O3)c1 [Compound 2AO, (S)-3-(6-(3-chloro-5-methoxyphenyl)-4-((3-(trifluoromethyl)phenyl)-sulfonyl)-3,4-dihydro-2H-benzo[b][1,4]oxazin-2-yl)propanoic acid] | > 6.30 | > 6.30 |  | **** (The symbol “****” indicates a value greater than 200) | *** (The symbol “***” indicates a value in the range of greater than 150 to 200) |  |
| COc1cc(F)cc(-c2ccc3c(c2)N(S(=O)(=O)c2cccc(C(F)(F)F)c2)C[C@H](CCC(=O)O)O3)c1F [Compound 4AZ, (S)-3-(6-(2,5-difluoro-3-methoxyphenyl)-4-((3-(trifluoromethyl)phenyl)-sulfonyl)-3,4-dihydro-2H-benzo[b][1,4]oxazin-2-yl)propanoic acid] | > 6.30 | > 6.30 |  | **** (The symbol “****” indicates a value greater than 200) | ** (The symbol “**” indicates a value in the range of greater than 90 to 150) |  |
| CC(=O)N[C@H]1C[C@H](C[C@H]2CN(S(=O)(=O)c3cccc(C(F)(F)F)c3)c3cc(-c4cc(F)ccc4F)ccc3O2)C1 [Compound 60E, N-((1S,3r)-3-(((S)-6-(2,5-difluorophenyl)-4-((3-(trifluoro-methyl)phenyl)sulfonyl)-3,4-dihydro-2H-benzo[b][1,4]oxazin-2-yl)methyl)cyclobutyl)-acetamide] | > 6.30 |  | > 6.30 | *** (The symbol “***” indicates a value in the range of greater than 150 to 200) |  | ** (The symbol “**” indicates a value in the range of greater than 90 to 150) |
| O=C(O)CC[C@H]1CN(S(=O)(=O)c2cccc(C(F)(F)F)c2)c2cc(-c3cccc(F)c3F)c(Cl)cc2O1 [Compound 22B, (S)-3-(7-chloro-6-(2,3-difluorophenyl)-4-((3-(trifluoromethyl)phenyl)sulfonyl)-3,4-dihydro-2H-benzo[b][1,4]-oxazin-2-yl)propanoic acid] | > 6.30 | > 6.30 |  | **** (The symbol “****” indicates a value greater than 200) | ** (The symbol “**” indicates a value in the range of greater than 90 to 150) |  |

The next lines start with results.

| pEC50 (RORγ-LBD) | pEC50 (Gal4-RORγ-LBD; [1]) | pEC50 (Gal4-RORγ-LBD; 2 μM ursolic acid) | Structure (SMILES) | TR-FRET Assay Max Response (RORγ-LBD) | Gal4-RORγ Assay Max Response (Gal4-RORγ-LBD; [1]) | Gal4-RORγ Assay Max Response (Gal4-RORγ-LBD; 2 μM ursolic acid) |
| --- | --- | --- | --- | --- | --- | --- |
| > 6.30 | 5.30 to 6.30 |  | O=C(CC[C@H]1CN(S(=O)(=O)c2cccc(C(F)(F)F)c2)c2cc(-c3ccc(F)cc3F)ccc2O1)NS(=O)(=O)c1ccccc1 [Compound 43A, (S)-3-(6-(2,4-difluorophenyl)-4-((3-(trifluoromethyl)phenyl)-sulfonyl)-3,4-dihydro-2H-benzo[b][1,4]oxazin-2-yl)-N-(phenylsulfonyl)propanamide] | **** (The symbol “****” indicates a value greater than 200) | *** (The symbol “***” indicates a value in the range of greater than 150 to 200) |  |
| > 6.30 | > 6.30 |  | O=C(NC[C@H]1CN(S(=O)(=O)c2cccc(C(F)(F)F)c2)c2cc(-c3cc(F)ccc3F)ccc2O1)C1CC1 [Compound 30Y, (S)-N-((6-(2,5-difluorophenyl)-4-((3-(trifluoromethyl)phenyl)-sulfonyl)-3,4-dihydro-2H-benzo[b][1,4]oxazin-2-yl)-methyl)cyclopropane-carboxamide] | **** (The symbol “****” indicates a value greater than 200) | ** (The symbol “**” indicates a value in the range of greater than 90 to 150) |  |
| > 6.30 | > 6.30 |  | CN(C)c1cccc(-c2ccc3c(c2)N(S(=O)(=O)c2cccc(C(F)(F)F)c2)C[C@H](CC(C)(C)C(=O)O)O3)n1 [Compound 32D, (S)-3-(6-(6-(dimethylamino)-pyridin-2-yl)-4-((3-(trifluoromethyl)phenyl)sulfonyl)-3,4-dihydro-2H-benzo[b][1,4]oxazin-2-yl)-2,2-dimethylpropanoic acid] | **** (The symbol “****” indicates a value greater than 200) | ** (The symbol “**” indicates a value in the range of greater than 90 to 150) |  |
| > 6.30 | > 6.30 |  | COc1cncc(-c2ccc3c(c2)N(S(=O)(=O)c2cccc(C(F)(F)F)c2)C[C@H](CCC(=O)O)O3)c1 [Compound 2V, (S)-3-(6-(5-methoxypyridin-3-yl)-4-((3-(trifluoromethyl)-phenyl)sulfonyl)-3,4-dihydro-2H-benzo[b][1,4]oxazin-2-yl)propanoic acid] | *** (The symbol “***” indicates a value in the range of greater than 150 to 200) | ** (The symbol “**” indicates a value in the range of greater than 90 to 150) |  |
| > 6.30 | 5.30 to 6.30 |  | CC(C)(C[C@H]1CN(S(=O)(=O)c2cccc(C(F)(F)F)c2)c2cc(-c3cccc(F)c3Cl)ccc2O1)C(=O)O [Compound 32H, (S)-3-(6-(2-chloro-3-fluorophenyl)-4-((3-(trifluoromethyl)phenyl)sulfonyl)-3,4-dihydro-2H-benzo[b][1,4]oxazin-2-yl)-2,2-dimethylpropanoic acid] | **** (The symbol “****” indicates a value greater than 200) | ** (The symbol “**” indicates a value in the range of greater than 90 to 150) |  |
| > 6.30 | 5.30 to 6.30 |  | O=C(CC[C@H]1CN(S(=O)(=O)c2cccc(C(F)(F)F)c2)c2cc(-c3cc(F)ccc3F)ccc2O1)NC[C@H](O)C(=O)O [Compound 23S, (S)-3-(3-((S)-6-(2,5-difluoro-phenyl)-4-((3-(trifluoromethyl)-phenyl)sulfonyl)-3,4-dihydro-2H-benzo[b][1,4]oxazin-2-yl)propanamido)-2-hydroxypropanoic acid] | **** (The symbol “****” indicates a value greater than 200) | ** (The symbol “**” indicates a value in the range of greater than 90 to 150) |  |
